Measured values published in patent publication US6620833B1, “Substituted benzimidazoles, production and use thereof as agents for combating parasitic protozoas” (Bayer Aktiengesellschaft, priority 1998, dated 2003).

Experiments:
Assay type in all cases: in vivo
[1] = test system: Eimeria acervulina; test: Cage experiment on coccidiosis/chicks, E. acervulina readout
[2] = test system: Eimeria maxima; test: Cage experiment on coccidiosis/chicks, E. maxima readout
[3] = test system: Eimeria tenella; test: Cage experiment on coccidiosis/chicks, E. tenella readout
[4] = test system: Eimeria acervulina, Eimeria maxima and Eimeria tenella; test: Cage experiment on coccidiosis/chicks, mixed experimental infection; details: for dropping scores / lesion score: assessment 0 to 6; for mortality n: dead animals/animals employed
Protocol: 8 to 12 day-old male chicks (e.g. LSL Brinkschulte/Senden) which have been reared coccidia-free receive the compounds according to the invention (test substances) in the concentration indicated in ppm with the feed from 3 days before (day −3) infection (=a.i.) until 8 (9) days after infection (=p.i.). 3 animals are kept in each cage. One or more groups of this type are employed per dose. Infection is carried out by means of a stomach tube directly into the crop with approximately 100,000 sporulated oocysts of Eimeria acervulina and with approximately 30,000 oocysts each of E. maxima and 40,000 sporulated oocysts of E. tenella. These are highly virulent strains. The exact infection dose is adjusted so that, if possible, one of three experimentally infected untreated chicks dies due to the infection. For assessment of the efficacy, the following criteria are taken into account: weight increase from the start of the experiment to the end of the experiment, death rate due to infection, macroscopic assessment of the faeces with respect to diarrhoea and excretion of blood on days 5 and 7 p.i. (assessment 0 to 6), macroscopic assessment of the intestinal mucosa, in particular of the appendices (assessment 0 to 6) and the oocyst excretion as well as the proportion (in %) of the oocysts sporulating in the course of 24 hours. The number of oocysts in the faeces was determined with the aid of a McMaster counting chamber (see Engelbrecht and coworkers “Parasitologische Arbeitsmethoden in Medizin and Veterinärmedizin” [Parasitological Working Methods in Medicine and Veterinary Medicine], Akademie-Verlag, Berlin (1965)). The individual findings are related to the untreated non-infected control groups and a total score is calculated (cf. A. Haberkorn (1986), pp. 263 to 270 in Research in Avian Coccidiosis ed L. R. McDougald, L. P. Joyner, P. L. Long, Proceedings of the Georgia Coccidiosis Conference, Nov. 18-20, 1985. Athens/Georgia USA).
In the column “ppm”, the concentration of the active compound employed in the feed is indicated in ppm.
In the column “mortality” the percentage of the dead animals is indicated under % and the number of dead animals/animals employed in the experiment is indicated under n.
In the column “weight % of not inf. control” the ratio of the weight of the treated animals to the weight of the non-infected control group is indicated.
In the columns “dropping scores”, “lesion score” and “oocyst control”, individual details of the action are given.
In the column “% efficacy”, the total score is assessed; 0% means no action, 100% means full action.

Compound: CO[C@@H]1[C@@H](OC)[C@H](C)[C@@](O)(CC(=O)O)O[C@H]1[C@H](C)[C@H]1O[C@@]2(CC[C@@](C)([C@H]3CC[C@@](C)([C@@H]4O[C@@H]([C@H]5O[C@](C)(O)[C@H](C)C[C@@H]5C)C[C@@H]4O[C@@H]4C[C@H](OC)[C@@H](OC)[C@H](C)O4)O3)O2)C[C@H](O)[C@H]1C [MAD, Maduramicin, reference compound]
- oocyst in % of inf. control ac. ([1]; Table 2, 1 ppm in feed): 8%
- oocyst in % of inf. control ac. ([1]; Table 2, 2 ppm in feed): 8%
- oocyst in % of inf. control ac. ([1]; Table 2, 3 ppm in feed): 1%
- oocyst in % of inf. control max. ([2]; Table 2, 1 ppm in feed): 100%
- oocyst in % of inf. control max. ([2]; Table 2, 2 ppm in feed): 100%
- oocyst in % of inf. control max. ([2]; Table 2, 3 ppm in feed): 0%
- oocyst in % of inf. control ten. ([3]; Table 2, 1 ppm in feed): 30%
- oocyst in % of inf. control ten. ([3]; Table 2, 2 ppm in feed): 45%
- oocyst in % of inf. control ten. ([3]; Table 2, 3 ppm in feed): 3%
- % efficacy tot. ([4]; Table 2, 1 ppm in feed): 73%
- mortality % ([4]; Table 2, 1 ppm in feed): 0%
- oocyst in % of inf. control tot. ([4]; Table 2, 1 ppm in feed): 46%
- weight % of not inf. control ([4]; Table 2, 1 ppm in feed): 93%
- dropping scores ([4]; Table 2, 1 ppm in feed): 1
- lesion score ([4]; Table 2, 1 ppm in feed): 2
- mortality n ([4]; Table 2, 1 ppm in feed): 0/3
- % efficacy tot. ([4]; Table 2, 2 ppm in feed): 84%
- mortality % ([4]; Table 2, 2 ppm in feed): 0%
- oocyst in % of inf. control tot. ([4]; Table 2, 2 ppm in feed): 51%
- weight % of not inf. control ([4]; Table 2, 2 ppm in feed): 114%
- dropping scores ([4]; Table 2, 2 ppm in feed): 0
- lesion score ([4]; Table 2, 2 ppm in feed): 2
- mortality n ([4]; Table 2, 2 ppm in feed): 0/3
- % efficacy tot. ([4]; Table 2, 3 ppm in feed): 100%
- mortality % ([4]; Table 2, 3 ppm in feed): 0%
- oocyst in % of inf. control tot. ([4]; Table 2, 3 ppm in feed): 1.3%
- weight % of not inf. control ([4]; Table 2, 3 ppm in feed): 112%
- dropping scores ([4]; Table 2, 3 ppm in feed): 0
- lesion score ([4]; Table 2, 3 ppm in feed): 0
- mortality n ([4]; Table 2, 3 ppm in feed): 0/3

Compound: CC[C@@]1([C@@H]2O[C@@H]([C@H]3O[C@@](O)(CO)[C@H](C)C[C@@H]3C)C[C@@H]2C)CC[C@H]([C@]2(C)CC[C@]3(C[C@H](O)[C@@H](C)[C@@H]([C@@H](C)[C@@H](OC)[C@H](C)C(=O)O)O3)O2)O1 [Mon., Monensin, reference compound]
- oocyst in % of inf. control ac. ([1]; Table 1, 25 ppm in feed): 98%
- oocyst in % of inf. control ac. ([1]; Table 1, 50 ppm in feed): 44%
- oocyst in % of inf. control ac. ([1]; Table 1, 100 ppm in feed): 8%
- oocyst in % of inf. control max. ([2]; Table 1, 25 ppm in feed): 0%
- oocyst in % of inf. control max. ([2]; Table 1, 50 ppm in feed): 0%
- oocyst in % of inf. control max. ([2]; Table 1, 100 ppm in feed): 0%
- oocyst in % of inf. control ten. ([3]; Table 1, 25 ppm in feed): 100%
- oocyst in % of inf. control ten. ([3]; Table 1, 50 ppm in feed): 13%
- oocyst in % of inf. control ten. ([3]; Table 1, 100 ppm in feed): 100%
- % efficacy tot. ([4]; Table 1, 25 ppm in feed): 45%
- mortality % ([4]; Table 1, 25 ppm in feed): 33%
- oocyst in % of inf. control tot. ([4]; Table 1, 25 ppm in feed): 66%
- weight % of not inf. control ([4]; Table 1, 25 ppm in feed): 36%
- dropping scores ([4]; Table 1, 25 ppm in feed): 6
- lesion score ([4]; Table 1, 25 ppm in feed): 6
- mortality n ([4]; Table 1, 25 ppm in feed): 1/3
- % efficacy tot. ([4]; Table 1, 50 ppm in feed): 36%
- mortality % ([4]; Table 1, 50 ppm in feed): 33%
- oocyst in % of inf. control tot. ([4]; Table 1, 50 ppm in feed): 19%
- weight % of not inf. control ([4]; Table 1, 50 ppm in feed): 81%
- dropping scores ([4]; Table 1, 50 ppm in feed): 6
- lesion score ([4]; Table 1, 50 ppm in feed): 6
- mortality n ([4]; Table 1, 50 ppm in feed): 1/3
- % efficacy tot. ([4]; Table 1, 100 ppm in feed): 24%
- mortality % ([4]; Table 1, 100 ppm in feed): 33%
- oocyst in % of inf. control tot. ([4]; Table 1, 100 ppm in feed): 36%
- weight % of not inf. control ([4]; Table 1, 100 ppm in feed): 30%
- dropping scores ([4]; Table 1, 100 ppm in feed): 6
- lesion score ([4]; Table 1, 100 ppm in feed): 6
- mortality n ([4]; Table 1, 100 ppm in feed): 1/3

Compound: CC[C@@H](C(=O)[C@@H](C)[C@@H](O)[C@H](C)[C@@H]1O[C@@H]([C@@H](CC)C(=O)O)CC[C@@H]1C)[C@H]1O[C@]2(C=C[C@@H](O)[C@]3(CC[C@@](C)([C@H]4CC[C@](O)(CC)[C@H](C)O4)O3)O2)[C@H](C)C[C@@H]1C [Sal., Salinomycin, reference compound]
- oocyst in % of inf. control ac. ([1]; Table 3, 60 ppm in feed): 6%
- oocyst in % of inf. control max. ([2]; Table 3, 60 ppm in feed): 0%
- oocyst in % of inf. control ten. ([3]; Table 3, 60 ppm in feed): 31%
- mortality % ([4]; Table 3, 15 ppm in feed): 100%
- mortality n ([4]; Table 3, 15 ppm in feed): 3/3
- mortality % ([4]; Table 3, 30 ppm in feed): 100%
- mortality n ([4]; Table 3, 30 ppm in feed): 3/3
- % efficacy tot. ([4]; Table 3, 60 ppm in feed): 67%
- mortality % ([4]; Table 3, 60 ppm in feed): 0%
- oocyst in % of inf. control tot. ([4]; Table 3, 60 ppm in feed): 12%
- weight % of not inf. control ([4]; Table 3, 60 ppm in feed): 106%
- dropping scores ([4]; Table 3, 60 ppm in feed): 6
- lesion score ([4]; Table 3, 60 ppm in feed): 1.3
- mortality n ([4]; Table 3, 60 ppm in feed): 0/3
